Where two headings read alike, the source gives them in different places.
Assays:
Genotoxicity studies = conditions: four studies
Description: (§1) The present invention comprising compositions of insulin and the delivery agent 4-CNAB was evaluated for safety and toxicity in a nonclinical program that included pharmacological screening, pharmacokinetic profiling, and toxicity assessments in rats and monkeys.

[1] = Example 8: food effect on 4-CNAB pharmacokinetics, type 1 diabetes patients; format: in vivo, human; conditions: for AUC / Cmax / Tmax / AUC(0-inf) / half-life: human, plasma; for AUC(0-inf): read-out: Plasma 4-CNAB AUC0-inf; for half-life: read-out: Plasma 4-CNAB t1/2 (converted)
Description: A single-center, open label, randomized, single dose, 3-way cross-over study was conducted in type 1 diabetes mellitus patients to investigate the effect of food on the absorption and pharmacokinetics of insulin after a single dose of oral 4-CNAB/insulin, and to determine the effect of food on the pharmacodynamics of glucose and C-peptide after a single oral dose of 4-CNAB/insulin.
For diabetic patients, the study consisted of an eligibility screening period, three study periods and a follow-up exam at the conclusion of the last period. The three study periods included the following: administration of single doses of 4-CNAB/insulin followed by fasting (treatment A), followed by an ADA breakfast […] after dosing (treatment B), and followed by an ADA breakfast […] after dosing (treatment C). The study was conducted using an open label, randomized, crossover design with an interval of at least 7 days between treatments. The patients fasted overnight. The type 1 diabetics were randomized to treatment A or […] in periods 1 and 2. In period 3, all diabetics received treatment C. A total of eight type 1 diabetic patients were enrolled. As a control group, two healthy volunteers were enrolled.
The following treatments were administered to the type 1 diabetics according to the randomization schedule (see below) • a) 400 mg 4-CNAB/300 IU insulin followed by fasting; • b) 400 mg 4-CNAB/300 IU insulin followed by an ADA breakfast 30 minutes after dosing; • c) 400 mg 4-CNAB/300 IU insulin followed by an ADA breakfast 20 minutes after dosing.
Blood samples for pharmacokinetic analysis of 4-CNAB and insulin were drawn 30, 15 and 5 minutes prior to and at 10, 20, 30, 40, 50, 60, 75, 90, 105, 120, 150, 180, 210, and 240 minutes after 4-CNAB/insulin administration (17 samples per subject per period). Blood samples for plasma glucose were drawn 30, 15 and 5 minutes prior to and at 10, 20, 30, 40, 50, 60, 75, 90, 105, 120, 150, 180, 210, and 240 minutes after administration (17 samples per subject per period). Blood samples for C-peptide were drawn 30 and 5 minutes prior to and 30, 60, 90, 120, 180 and 240 minutes after administration (8 samples per subject per period).

[2] = test system: primary molecular targets; experiment: Receptor binding screening assays
Description: as §1

plasma C-peptide = experiment: Example 6: plasma C-peptide during glucose clamp; format: in vivo, human; conditions: for C-peptide level, mean: 15 U SC
Description: During each study period, blood samples were collected for the determination of plasma insulin concentrations, plasma C-peptide and plasma glucose concentration. Sampling occurred from 6 hrs before dosing and continued for 6 hrs after the dose was administered. Blood samples were collected via a venous cannula. Blood samples were collected relative to the administration of the study drug (1) prior to study of drug administration at −1 and −0.5 hrs, (2) immediately after study drug administration (time 0), and (3) post administration of the study drug at 10, 20, 30, 40, 50 min, and 1, 1.25, 1.5, 1.75, 2, 2.5, 3, 3.5, 4, 5, and 6 hrs
Blood samples were collected from each patient during each treatment period for determination of plasma insulin concentrations, plasma C-peptide, and plasma glucose. Glucose infusion rates and blood glucose measurements were measured continuously during the glucose clamp procedure. All treatments were identical in their sample collection and monitoring periods for all visits. After a 6 hours pre-dose baseline period for stabilization of blood glucose concentrations at the desired clamp level, the clamp procedure after study drug administration lasted 6 hours.

[3] = in vivo, sc
Description: Safety assessments included physical examinations, medical history, vital signs, 12-lead electrocardiogram (ECG) monitoring, laboratory evaluations and checking for adverse events. Activity parameters included blood glucose, insulin, C-peptide, and 4-CNAB plasma concentration measurements.
Example 6: safety = experiment: Example 6: safety; design: species or system human; conditions: in vivo
Description: Safety was monitored by vital sign measurements and documentation of adverse events (AE) during all visits throughout the study.
Safety data included AEs, laboratory data, vital signs, physical examinations, and ECGs. Vital signs (systolic and diastolic blood pressure, respiration rate, heart rate, and body temperature) for each treatment group were summarized at baseline (defined as the −30 min time point) and at the end of each study day.

[4] = monkey, in vivo
[5] = oral, period 0-20 minutes post-dose, Breakfast 20 min post-dose
[6] = oral, period 0-20 minutes post-dose, Breakfast 30 min post-dose
[7] = oral, period 0-20 minutes post-dose, Fasting
[8] = oral, period 0-30 minutes post-dose, Breakfast 20 min post-dose
[9] = oral, period 0-30 minutes post-dose, Breakfast 30 min post-dose
[10] = oral, period 0-30 minutes post-dose, Fasting
[11] = oral, period 0-3 hours post-dose, Breakfast 20 min post-dose
[12] = oral, period 0-3 hours post-dose, Breakfast 30 min post-dose
[13] = oral, period 0-3 hours post-dose, Fasting
[14] = po, 400 mg, 400 mg 4-CNAB/300 IU insulin oral, Breakfast 20 min post-dose
[15] = po, 400 mg, 400 mg 4-CNAB/300 IU insulin oral, Breakfast 30 min post-dose
[16] = po, 400 mg, 400 mg 4-CNAB/300 IU insulin oral, Fasting

Compound: O=C(O)CCCNC(=O)c1ccc(Cl)cc1O [4-CNAB, 4-[(4-chloro, 2-hydroxybenzoyl)amino]butanoic acid]
- Genotoxicity findings (Genotoxicity studies): no positive findings
- Effect of food intake on 4-CNAB pharmacokinetics ([1]; breakfast 30 or 20 minutes after dosing): no effect on the pharmacokinetics of 4-CNAB
- AUC [1, 5]: 2800 ng·h/mL
- Cmax [1, 5]: 20600 ng/mL
- Tmax ([1]; oral, period 0-20 minutes post-dose, Breakfast 20 min post-dose, read-out: Plasma 4-CNAB tmax): 19.8 min
- AUC [1, 6]: 2280 ng·h/mL
- Cmax [1, 6]: 18800 ng/mL
- Tmax ([1]; oral, period 0-20 minutes post-dose, Breakfast 30 min post-dose, read-out: Plasma 4-CNAB tmax): 19.8 min
- AUC [1, 7]: 2900 ng·h/mL
- Cmax [1, 7]: 20700 ng/mL
- Tmax ([1]; oral, period 0-20 minutes post-dose, Fasting, read-out: Plasma 4-CNAB tmax): 19.8 min
- AUC [1, 8]: 6370 ng·h/mL
- Cmax [1, 8]: 24600 ng/mL
- Tmax ([1]; oral, period 0-30 minutes post-dose, Breakfast 20 min post-dose, read-out: Plasma 4-CNAB tmax): 25.2 min
- AUC [1, 9]: 5960 ng·h/mL
- Cmax [1, 9]: 24000 ng/mL
- Tmax ([1]; oral, period 0-30 minutes post-dose, Breakfast 30 min post-dose, read-out: Plasma 4-CNAB tmax): 28.8 min
- AUC [1, 10]: 6300 ng·h/mL
- Cmax [1, 10]: 21500 ng/mL
- Tmax ([1]; oral, period 0-30 minutes post-dose, Fasting, read-out: Plasma 4-CNAB tmax): 23.4 min
- AUC [1, 11]: 16500 ng·h/mL
- Cmax [1, 11]: 25000 ng/mL
- Tmax ([1]; oral, period 0-3 hours post-dose, Breakfast 20 min post-dose, read-out: Plasma 4-CNAB tmax): 27.6 min
- AUC [1, 12]: 17100 ng·h/mL
- Cmax [1, 12]: 24000 ng/mL
- Tmax ([1]; oral, period 0-3 hours post-dose, Breakfast 30 min post-dose, read-out: Plasma 4-CNAB tmax): 30 min
- AUC [1, 13]: 18300 ng·h/mL
- Cmax [1, 13]: 21800 ng/mL
- Tmax ([1]; oral, period 0-3 hours post-dose, Fasting, read-out: Plasma 4-CNAB tmax): 26.4 min
- Cmax [1, 14]: 25000 ng/mL
- AUC(0-inf) [1, 14]: 18000 ng·h/mL
- half-life [1, 14]: 39 min
- Tmax ([1]; po, 400 mg, 400 mg 4-CNAB/300 IU insulin oral, Breakfast 20 min post-dose, read-out: Plasma 4-CNAB tmax, Median (min-max)): 25.2 min
- Cmax [1, 15]: 24000 ng/mL
- AUC(0-inf) [1, 15]: 18400 ng·h/mL
- half-life [1, 15]: 42 min
- Tmax ([1]; po, 400 mg, 400 mg 4-CNAB/300 IU insulin oral, Breakfast 30 min post-dose, read-out: Plasma 4-CNAB tmax, Median (min-max)): 30 min
- Cmax [1, 16]: 21800 ng/mL
- AUC(0-inf) [1, 16]: 20700 ng·h/mL
- half-life [1, 16]: 51.6 min
- Tmax ([1]; po, 400 mg, 400 mg 4-CNAB/300 IU insulin oral, Fasting, read-out: Plasma 4-CNAB tmax, Median (min-max)): 25.2 min
- Activity in receptor binding screening [2]: did not demonstrate potential activity in any of the primary molecular targets

Compound: SC insulin: human regular insulin injected subcutaneously (Humulin R or equivalent; Calbiochem insulin in the rat studies)
- Change in C-peptide during treatment periods (plasma C-peptide; 15 IU s.c., 300 IU oral and 150 IU oral): no significant changes
- C-peptide level, mean (plasma C-peptide; 10 minutes): 1.05 nmol/L
- C-peptide level, mean (plasma C-peptide; 20 minutes): 1.07 nmol/L
- C-peptide level, mean (plasma C-peptide; 30 minutes): 1.09 nmol/L
- C-peptide level, mean (plasma C-peptide; 40 minutes): 1.11 nmol/L
- C-peptide level, mean (plasma C-peptide; 50 minutes): 1.05 nmol/L
- C-peptide level, mean (plasma C-peptide; 60 minutes): 1.04 nmol/L
- C-peptide level, mean (plasma C-peptide; 75 minutes): 1.07 nmol/L
- C-peptide level, mean (plasma C-peptide; 90 minutes): 1.03 nmol/L
- C-peptide level, mean (plasma C-peptide; 105 minutes): 1.01 nmol/L
- C-peptide level, mean (plasma C-peptide; 120 minutes): 0.99 nmol/L
- C-peptide level, mean (plasma C-peptide; 150 minutes): 1.01 nmol/L
- C-peptide level, mean (plasma C-peptide; 180 minutes): 0.99 nmol/L
- C-peptide level, mean (plasma C-peptide; 210 minutes): 0.97 nmol/L
- C-peptide level, mean (plasma C-peptide; 240 minutes): 0.94 nmol/L
- C-peptide level, mean (plasma C-peptide; 300 minutes): 0.96 nmol/L
- C-peptide level, mean (plasma C-peptide; 360 minutes): 0.92 nmol/L
- C-peptide level, mean (plasma C-peptide; Time 0): 1.04 nmol/L
- C-peptide level, mean (plasma C-peptide; −30 minutes): 1.05 nmol/L
- C-peptide level, mean (plasma C-peptide; −60 minutes): 1.02 nmol/L
- Hypoglycemia occasions requiring rescue treatment [3]: twelve
- Treatment-related adverse events [3]: sixteen events
- Adverse events / tolerability (Example 6: safety): No adverse events were observed

Compound: oral insulin alone: recombinant human zinc insulin given orally without delivery agent
- Absolute bioavailability of insulin [4]: ≤ 1%

— patent US7429564B2, “Oral insulin therapy” (Emisphere Technologies, Inc., priority 2002, dated 2008)
